In brackets after ≈: the same amount, converted by molar mass.
How the values were obtained:
HeLa cells = assay: Antiproliferative activity against HeLa cells (MTT cell viability); settings: for IC50: Homo sapiens, HeLa, 72 h, read-out: Drug Alone IC50
Lewis lung carcinoma = assay: Antitumor activity against Lewis lung carcinoma in mice (tumor weight, pulmonary metastatic foci); assay type: in vivo; settings: i.p. once daily, 101,731 5 mg/kg day 1-7, Ara-C 10 mg/kg day 7-14; for % Inhibition (tumor weight) / Tumor Weight (g) (Mean ± S.D.): 3LL cells s.c. day 0; for % Inhibition (tumor weight) / % Inhibition (No. of foci) / No. of Foci (Mean ± S.D.): day 15; for Tumor Weight (g) (Mean ± S.D.): tumors weighed day 15; for % Inhibition (No. of foci) / No. of Foci (Mean ± S.D.): pulmonary metastatic foci
Excerpt: Inject 3 LL cells (1×10^5/mouse) s.c. on day 0. Administer compounds i.p., once daily as indicated. Sacrifice animals on day 15, dissect the tumors and weigh. Also count pulmonary metastatic foci.

B16 melanoma = assay: Antitumor activity against B16 melanoma in mice; assay type: in vivo; settings: B16 melanoma s.c. day 0, i.p. once daily, 101,731 5 mg/kg day 1-7, Ara-C 10 mg/kg day 7-14; for % Inhibition (tumor weight): day 15; for Tumor Weight (g) (Mean ± S.D.): tumors weighed day 15
Excerpt: Inject B16 melanoma cells (1×10^5 cells/mouse) subcutaneously on day 0. Administer compounds i.p. once daily as indicated. Sacrifice the animals on day 15, dissect the tumors and weigh.

Row | IC50 (HeLa cells) [µg/mL] | Drug + 101,731 IC50 (HeLa cells; HeLa cells pretreated with MDL 101,731 15 ng/mL for 24 hours, washed, then drug for 72 hours, MTT) [µg/mL] | Drug Alone IC50 (HeLa cells; HeLa cells, 72 hours exposure to drug, MTT) [µg/mL] | SMILES | % Inhibition (tumor weight) (Lewis lung carcinoma) [%] | Tumor Weight (g) (Mean ± S.D.) (Lewis lung carcinoma) | % Inhibition (No. of foci) (Lewis lung carcinoma) [%] | No. of Foci (Mean ± S.D.) (Lewis lung carcinoma) | Effect on the growth of the tumor cells (HeLa cells; MDL 101,731 alone, 15 ng/mL for 24 hours, HeLa cells) | % Inhibition (tumor weight) (B16 melanoma) [%] | Tumor Weight (g) (Mean ± S.D.) (B16 melanoma)
1 | 41.1 (≈ 316 µM) | – | – | O=c1[nH]cc(F)c(=O)[nH]1 [5-Fluorouracil (5Fu), 5-Fluorouracil] | – | – | – | – | – | – | –
2 | – | – | – | Nc1ccn([C@@H]2O[C@H](CO)[C@@H](O)/C2=C\F)c(=O)n1 [101,731, (E)-2′-deoxy-2′-fluoromethylidenecytidine] | 20 | 2.8 ± 0.6 | 0 | 15.5 ± 6 | did not show any effect | 10 | 2.4 ± 0.9
3 | – | 3.2 | 13.7 | Nc1ccn([C@@H]2O[C@H](CO)[C@@H](O)[C@@H]2O)c(=O)n1 [Ara-C, Cytosine Arabinoside] | 0 | 3.83 ± 0.8 | 0 | 14.6 ± 5 | – | 0 | 3.6 ± 0.8
4 | 86.7 (≈ 107 µM) | – | – | CC[C@]1(O)C[C@@H]2CN(CCc3c([nH]c4ccccc34)[C@@](C(=O)OC)(c3cc4c(cc3OC)N(C)[C@H]3[C@@](O)(C(=O)OC)[C@H](OC(C)=O)[C@]5(CC)C=CCN6CC[C@]43[C@@H]65)C2)C1 [Vinblastine (VLB), Vinblastine] | – | – | – | – | – | – | –

From patent US20050032738A1, “Method of treating cancer by conjunctive therapy with 2'-haloemethylidene derivatives and a S-phase or M-phase specific antineoplastic agent” (Merrell Pharmaceuticals Inc., priority 1992, published 2005)
